Measurements: patent US20160193202A1, “THERAPEUTIC TREATMENT FOR DRUG POISONING AND ADDICTION” (ADISPELL, INC., priority 2013, published 2016)
Several values for one entry are separate records, joined by “and”; a condition that tells them apart may be missing. Identical values can stand only once. Entries after “also recorded” stand apart in the source; their conditions may differ. Like-named read-outs stand apart in the source and are kept apart here.

Legend:
[1] = target: nicotinic acetylcholine receptor (Mus musculus, UniProt P02716+P04756+P04760+P09690); settings: cited from earlier work
Sequence of nicotinic acetylcholine receptor (P04756 21-457): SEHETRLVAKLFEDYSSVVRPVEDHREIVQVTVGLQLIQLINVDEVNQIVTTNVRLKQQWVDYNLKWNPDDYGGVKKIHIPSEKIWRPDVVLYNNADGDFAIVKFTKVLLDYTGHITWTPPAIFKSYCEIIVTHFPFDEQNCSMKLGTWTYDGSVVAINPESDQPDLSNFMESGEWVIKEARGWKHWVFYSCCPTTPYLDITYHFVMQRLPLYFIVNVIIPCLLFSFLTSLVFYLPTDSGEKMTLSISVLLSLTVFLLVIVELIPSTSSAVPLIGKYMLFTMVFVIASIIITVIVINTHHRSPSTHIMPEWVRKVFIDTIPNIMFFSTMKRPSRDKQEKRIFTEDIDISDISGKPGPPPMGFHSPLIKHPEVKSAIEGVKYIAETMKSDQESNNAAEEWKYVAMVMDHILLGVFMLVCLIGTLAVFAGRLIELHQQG
Sequence of nicotinic acetylcholine receptor (P09690 24-501): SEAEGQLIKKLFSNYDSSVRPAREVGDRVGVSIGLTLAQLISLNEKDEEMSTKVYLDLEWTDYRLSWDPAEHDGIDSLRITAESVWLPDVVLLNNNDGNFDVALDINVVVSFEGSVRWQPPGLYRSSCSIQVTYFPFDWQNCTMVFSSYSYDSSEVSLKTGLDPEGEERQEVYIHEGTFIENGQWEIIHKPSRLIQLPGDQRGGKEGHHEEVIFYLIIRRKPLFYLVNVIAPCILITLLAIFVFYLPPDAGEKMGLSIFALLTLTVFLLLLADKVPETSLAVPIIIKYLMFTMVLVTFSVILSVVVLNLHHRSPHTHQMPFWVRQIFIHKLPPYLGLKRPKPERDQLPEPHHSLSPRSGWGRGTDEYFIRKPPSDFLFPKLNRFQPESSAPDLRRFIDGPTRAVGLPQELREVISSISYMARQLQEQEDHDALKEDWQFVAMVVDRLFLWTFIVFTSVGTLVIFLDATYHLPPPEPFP
Sequence of nicotinic acetylcholine receptor (P04760 23-519): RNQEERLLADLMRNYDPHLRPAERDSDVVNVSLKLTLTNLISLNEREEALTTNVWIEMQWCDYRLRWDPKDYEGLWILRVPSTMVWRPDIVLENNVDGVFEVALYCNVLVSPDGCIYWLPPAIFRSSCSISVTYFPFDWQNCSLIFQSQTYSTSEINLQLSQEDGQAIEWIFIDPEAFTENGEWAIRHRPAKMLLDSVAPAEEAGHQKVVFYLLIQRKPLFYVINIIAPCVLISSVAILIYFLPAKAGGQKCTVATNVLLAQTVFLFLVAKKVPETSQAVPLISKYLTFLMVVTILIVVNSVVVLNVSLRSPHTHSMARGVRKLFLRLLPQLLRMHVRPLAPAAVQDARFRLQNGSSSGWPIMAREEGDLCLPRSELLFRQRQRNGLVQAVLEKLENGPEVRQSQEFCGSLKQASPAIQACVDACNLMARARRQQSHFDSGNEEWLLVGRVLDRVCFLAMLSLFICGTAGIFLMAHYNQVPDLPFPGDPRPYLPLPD
Sequence of nicotinic acetylcholine receptor (P02716 25-520): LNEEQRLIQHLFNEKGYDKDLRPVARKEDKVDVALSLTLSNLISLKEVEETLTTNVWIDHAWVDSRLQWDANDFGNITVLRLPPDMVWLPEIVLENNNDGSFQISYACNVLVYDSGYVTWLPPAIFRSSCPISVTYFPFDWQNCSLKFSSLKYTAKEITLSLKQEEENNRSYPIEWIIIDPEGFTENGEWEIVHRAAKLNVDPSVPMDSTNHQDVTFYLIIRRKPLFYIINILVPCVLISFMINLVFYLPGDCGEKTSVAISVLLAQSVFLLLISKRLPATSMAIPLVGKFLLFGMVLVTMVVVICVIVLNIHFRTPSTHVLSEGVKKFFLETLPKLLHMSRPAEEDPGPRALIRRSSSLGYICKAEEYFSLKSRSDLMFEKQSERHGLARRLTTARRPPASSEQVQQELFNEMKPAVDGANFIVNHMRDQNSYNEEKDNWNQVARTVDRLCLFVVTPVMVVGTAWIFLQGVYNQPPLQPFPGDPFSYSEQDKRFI

rats = assay: Morris water maze probe trial with scopolamine; type: in vivo, rat; settings: for Morris water maze individual swimming trace, finding of target area: individual rat, FIGS. 1A-1C
Excerpt: The Morris water maze for rats (San Diego Instruments) uses a 70 inch diameter swimming tank, in which rats, one at a time, are placed to determine the swimming time taken to find a platform, which can be visible or submerged, and is placed randomly in the tank, with its position locatable by means of navigation in response to visible clues. A video camera is positioned to record the swimming path of the rat, and computer analysis of the path permits accurate assessment of elapsed time, distance traveled, and route taken to achieve particular objectives. This technique is used to study memory, learning and spatial working, in healthy, diseased, and drug-affected states. The test can be applied acutely (probe test) or can involve considerable training and repeat measure experimental designs. The term “latency” in the context of the Morris water maze is used to depict the relation of time taken to escape from the water (Morris R., “Development of a Water-Maze Procedure for Studying Spatial Learning in The Rat,” Journal of Neuroscience Methods 11:47-60 (1984) and Wongwitdecha et al., “Effects of Social Isolation Rearing on Learning in the Morris Water Maze,” Brain Research 715:119-124 (1996), both of which are hereby incorporated by reference in their entirety).
This was a single dose probe trial in normal healthy rats with the objective of determining whether: (a) there is an effect in raising cognitive efficiency in unimpaired rats and (b) impairment caused by scopolamine can be reversed by EME.
FIGS. 1A-1C show three individual swimming traces for rats treated with a control vehicle (FIG. 1A), a combined dose of ecgonine methyl ester (EME) (10 mg/kg) and scopolamine (1 mg/kg) (FIG. 1B), and a single dose of scopolamine (1 mg/kg) (FIG. 1C). The target area was in the “south west” or bottom left quadrant of the bath. […] This observation was significant (p<0.05).
The group results in this probe trial with vehicle (VEH), EME alone, scopolamine alone, and EME plus scopolamine in the acute dose Morris water maze experiment are shown in FIG. 2. In particular, column 1 depicts the probe test results for the vehicle, column 2 depicts probe test results for EME alone, column 3 depicts probe test results for scopolamine alone, and column 4 depicts probe test results for EME in combination with scopolamine.

in vivo = settings: rat, brain and plasma, ip, 10 mg/kg
Procedure: (§1) Plasma and Brain Concentrations after Intraperitoneal Doses—Twenty young adult rats in groups of four were given intraperitoneal doses of 10 mg/kg, and killed and dissected at various times after dosing. Brain and plasma concentrations were assessed by GC-MS. Samples were pre-dose, and at 1, 2, 4 and 24 hours after the dose. Each point is the mean value from four rats.

mice = mice pretreated with EME 50 mg/kg, 126 mg/kg cocaine five minutes later; survivors/animals; cited from earlier work
[2] = Brain and plasma concentrations after 10 mg/kg intraperitoneal doses (GC-MS)
Procedure: as §1

[3] = target: T1, BC3H1 nicotinic acetylcholine receptor (Mus musculus, UniProt P02716+P04756+P04760+P09690); settings: 100 μM carbamoylcholine, cited from earlier work
T1 construct: endogenous in cells; host or cells: BC3H1 cells
T1 sequence (P04756 21-457): as the sequence (P04756 21-457) above
T1 sequence (P09690 24-501): as the sequence (P09690 24-501) above
T1 sequence (P04760 23-519): as the sequence (P04760 23-519) above
T1 sequence (P02716 25-520): as the sequence (P02716 25-520) above

[4] = range where effects of multiple Class 1 compounds were alleviated, read-out: KD(Alv)
[5] = read-out: KD(Alv), range where effects of multiple Class 1 compounds were alleviated

In the case of COC(=O)C1C(OC(C)=O)CC2CCC1N2C (stereo not shown) [3.Acetoxy EME, 3-Acetoxy EME], the Kd [1, 4] is listed as 3.3 µM.
For CN1[C@@H]2C[C@@H](OC(=O)[C@H](CO)c3ccccc3)C[C@H]1[C@@H]1O[C@@H]12 [scopolamine, reference compound], the “Morris water maze individual swimming trace, finding of target area” value (rats) was “showed no preference” and the “Morris water maze probe test, group result” value (rats; scopolamine alone (1 mg/kg), group size 10, p<0.05) was “showed the impairment”.
For CN1C2CC(S(=O)(=O)c3ccccc3)C1C(C(=O)O)=CC2=O (stereo not shown) [RCS-111-143], the Kd [1, 4] is listed as 3.3 µM.
For CN1C2CCC1C(C(=O)O)C(O)C2 (stereo not shown) [Ecgonine, ecgonine], the Kd [1, 5] is listed as 3.5 µM.
For COC(=O)C1C(O)CC2CCC1N2C (stereo not shown) [EME, ecgonine methyl ester], the Kp (in vivo) is given as ~10, the Kd [1, 5] is given as 0.8 to 12.7 µM and the Survival (mice) is given as “increased survival and 9/40”. The “Predicted half-life in humans” value ([2]; predicted from persistence in rats) was 6 to 8 h, the “Absorption after the IP dose” value ([2]; rat, 10 mg/kg IP) was “rapid absorption” and the “Decay of plasma concentrations” value ([2]; rat, 10 mg/kg IP) was “biexponential decay”. The “Time of maximal brain concentration” value ([2]; rat, 10 mg/kg IP) was 2 h, the “Time of peak plasma concentration” value ([2]; rat, 10 mg/kg IP) was “already peaked at one hour” and the Brain penetration ([2]; rat, in vivo) was “readily penetrates the brain”. For the same molecule, the “Morris water maze probe test, group result, reversal of scopolamine impairment” value (rats; EME (10 mg/kg) combined with scopolamine (1 mg/kg), single dose, group size 10) was “reversed the scopolamine effect; also recorded: restore function impaired by scopolamine”, the “Morris water maze probe test, group result versus controls” value (rats; EME alone, single dose, normal healthy rats, group size 10) was “no effect on its own” and the “Morris water maze individual swimming trace, finding of target area” value (rats) was “found the target area”. The “Alleviation of cocaine inhibition of the nicotinic acetylcholine receptor” value ([3]; cocaine present (200 μM for EME)) was “Alleviation of cocaine inhibition”.
In the case of “aptamer 3: Class 2 RNA aptamer, SEQ ID NO:56 (AGUAGGAAUACCCCCAUCCAAAGCUCGCUAGGCUGAACAC; RNA, backbone not given here)”, the “Effect on whole-cell current generated by carbamoylcholine” value ([3]; 5 μM aptamer, −60 mV, 22° C., pH 7.4, no inhibitor) is listed as “no effect”.
In the case of COC(=O)C1=CC(=O)C2CC(S(=O)(=O)c3ccccc3)C1N2C (stereo not shown) [RCS-111-140A], the Kd [1, 4] is listed as 0.8 to 8.2 µM and the Kd ([1]; unit inferred, read-out: KD(alv)) is listed as 0.8 µM.
In the case of COC(=O)C1=C(c2ccccc2)C(=O)C2CC(S(=O)(=O)c3ccccc3)C1N2C (stereo not shown) [RCS-111-202A], the Kd [1, 4] is listed as 2.8 µM.
In the case of CN1C2CCC1C(C(=O)O)C(c1ccc(Cl)cc1)C2 (stereo not shown) [RTI Compound], the Kd [1, 5] is listed as 0.7 to 14 µM and the Kd ([1]; read-out: KD(alv), unit inferred) is listed as 0.7 µM.
For CN1C2CC(S(=O)(=O)c3ccccc3)C1C(C(=O)O)=C(c1ccccc1)C2=O (stereo not shown) [RCS-111-218], the Kd [1, 4] is given as 5 µM.
